Data as given in PubChem BioAssay AID489023 (Sanford-Burnham Center for Chemical Genomics, 2010).
Active and inactive are the calls of the source. How the calls were made is not given here.

The compounds below were run on 697B cells, BCR-induced NF-kB luciferase reporter luminescence (assay: inhibitors of BCR-induced NF-kB activation, dose response, 697B cells, luciferase luminescence (AID 489023)).
For `Cc1cc(C)nc(Sc2ccc([N+](=O)[O-])cc2[N+](=O)[O-])n1`, the IC50 was 1.95 µM. In the case of `CCn1c(=S)[nH]c2cc(S(=O)(=O)N3CCCCC3)ccc21`, the IC50 is reported as 31 µM (inactive). In the case of `CC(C)Cn1c([N+](=O)[O-])nc2c1c(=O)[nH]c(=O)n2C`, the IC50 is reported as 5.67 µM. `CCc1ccc(/C=C2/SC(=S)N(CCC(=O)Nc3ccc(C(=O)O)cc3)C2=O)cc1` showed an IC50 of 4.07 µM. With `Cc1ccc(-n2c(-c3ccccc3)c[n+]3c2CCc2ccccc2-3)c(C)c1` the IC50 was 56.7 µM (inactive). `COc1ccc2nc(Sc3c([N+](=O)[O-])nc(C)n3Cc3ccccc3)[nH]c2c1` was tested, and the IC50 was 18.2 µM. For `CCOc1ccc(S(=O)(=O)NCc2ccncc2)cc1NC(=O)c1ccccc1`, the IC50 was > 80 µM (inactive). `O=C(CN1C(=O)c2ccccc2S1(=O)=O)N1CCc2ccccc21` showed an IC50 of 1.24 µM. `N=c1ccn2c(n1)OC1C(O)C(CO)OC12` (centres undefined) showed an IC50 of less than 0.16 µM. `COc1ccc(C(C(=O)NC2CCCCC2)N(C(=O)CCl)c2ccc(OC)cc2)cc1` (centres undefined) gave an IC50 of 0.57 µM. Compound `CCOc1ccc(/C=C2\SC(=S)N(CCC(=O)Nc3cccc(C(=O)O)c3)C2=O)cc1` has an IC50 of 8.87 µM. For `COc1ccc(/C=C2\SC(=S)N(CCC(=O)Nc3ccc(C(=O)O)cc3)C2=O)cc1`, the IC50 was > 80 µM (inactive). In the case of `CCN1C(=O)c2cccc3c(S(=O)(=O)Nc4ccccc4)ccc1c23`, the IC50 is reported as 40.4 µM (inactive). In the case of `Cc1nc2cc(-c3cccc(F)c3)nn2c(C)c1CCC(=O)N1CCC2(CC1)OCCO2`, the IC50 is reported as 49.5 µM (inactive). `COc1ccc(S(=O)(=O)Nc2cc3c(C(C)=O)c(C)oc3c3ccccc23)cc1` was tested, and the IC50 was > 80 µM (inactive). `Oc1cc(O)cc(-c2cc3ccc(O)cc3o2)c1` was tested, and the IC50 was > 80 µM (inactive). For `COc1ccc(NC(=O)c2cc3c(Cl)nc4ccccc4c3s2)cc1OC`, the IC50 was 60.3 µM (inactive). Work on `CC(C)CN(C(=O)COC(=O)C12CC3CC(CC(C3)C1)C2)c1c(N)n(Cc2ccccc2)c(=O)[nH]c1=O` yielded an IC50 of 5.71 µM. With `CCn1c(=O)cc(SCC(=O)N2CCN(C(=O)c3ccco3)CC2)c2ccccc21` the IC50 was > 80 µM (inactive). `CCN1C(=O)c2cccc3c(NC(=O)c4cccc(N5C(=O)CCC5=O)c4)ccc1c23` was tested, and the IC50 was > 80 µM (inactive). With `C=CCn1c(O)c(C(C)=NC(C)c2ccccc2)c(=O)[nH]c1=O` (centres undefined) the IC50 was > 80 µM (inactive). In the case of `Cc1nc2cc(-c3ccccc3)nn2c(C)c1CCC(=O)N1CCC2(CC1)OCCO2`, the IC50 is reported as > 80 µM (inactive). In the case of `CCNc1nc(C)c2cc(Br)c(=O)n(CC)c2n1`, the IC50 is reported as 1.48 µM. `Cc1cc(OC(=O)c2ccccc2Cl)cc(=O)n1C` was tested, and the IC50 was > 80 µM (inactive). For `CC(=C/c1ccco1)/C=N/NC(=O)CSc1nnc(SCc2ccc(C)cc2)s1`, the IC50 was > 80 µM (inactive). In the case of `COc1ccccc1/C=C1\SC(=S)N(CCC(=O)Nc2nnc(C)s2)C1=O`, the IC50 is reported as > 80 µM (inactive). `CN(C)CCCN=Cc1c(-c2ccccc2)[nH]n(-c2nc3ccccc3s2)c1=O` showed an IC50 of 5.81 µM. With `COc1ccc(NS(=O)(=O)c2cc(NC(=O)c3cc(=O)c4ccccc4o3)ccc2OC)cc1` the IC50 was > 80 µM (inactive). For `CCN(CC)S(=O)(=O)c1ccc(N2CCOCC2)c(NC(=O)c2[nH]c(C)c(C(C)=O)c2C)c1`, the IC50 was 27.3 µM (inactive). With `CC(C)Oc1ccc(C(=O)Nc2ccc(N(C)C)cc2)cc1` the IC50 was 61.3 µM (inactive). In the case of `CCOc1ccc(-c2cc(CCCC(=O)NCCCOC)no2)cc1`, the IC50 is reported as > 80 µM (inactive). With `Cc1cc(N(C)C)ccc1N=Nc1ccc(N)cc1` the IC50 was 61.1 µM (inactive). `O=C(N/N=C/c1ccc(Cl)cc1Cl)c1ccc(-n2cnnn2)cc1` was tested, and the IC50 was > 80 µM (inactive). With `CCOc1ccc(-c2nnc(SCC(=O)NC3CC3)o2)cc1` the IC50 was 62 µM (inactive). `Cn1cnc([N+](=O)[O-])c1Sc1ccc([N+](=O)[O-])cc1` showed an IC50 of 3.61 µM. With `O=C(CN1C(=O)c2ccccc2S1(=O)=O)c1ccc(OC(F)F)cc1` the IC50 was 1.83 µM. `O=C(Nc1ccc(NC(=O)c2cc3ccccc3o2)cc1)c1ccc2c(c1)OCCO2` gave an IC50 of 0.3 µM. With `COc1cc(-c2[nH]nc3c2C(c2ccco2)C(C#N)=C(N)O3)cc(OC)c1OC` (centres undefined) the IC50 was > 80 µM (inactive). Compound `COc1ccc2nc(C)cc(Sc3nc4ccccc4s3)c2c1` has an IC50 of 1.81 µM. `CCN(CC)c1ccc(/C=N/N=C(c2ccccc2)c2ccccc2)c(O)c1` was tested, and the IC50 was > 80 µM (inactive). For `COc1ccc(-c2ccc(OC)c([C@H]3[C@H]4C=CC[C@@H](C)[C@@H]4C(=O)N3Cc3ccccc3)c2)cc1`, the IC50 was > 80 µM (inactive). In the case of `Cc1ccc(Sc2cc(NCCCO)c([N+](=O)[O-])c3nonc23)cc1`, the IC50 is reported as > 80 µM (inactive). `Cn1c(=O)cc(Nc2ccccc2)c2c(=O)n(-c3ccccc3)c(=O)n(-c3ccccc3)c21` was tested, and the IC50 was 5.6 µM. `CC(C)C(c1nnnn1Cc1ccccc1)N(Cc1ccco1)Cc1cccs1` (centres undefined) was tested, and the IC50 was > 80 µM (inactive). With `COc1ccc(-n2c(-c3ccc(Cl)cc3)c[n+]3c2CCc2ccccc2-3)cc1` the IC50 was > 80 µM (inactive). `COc1ccc(-c2nc(CSCC(=O)NCc3ccco3)c(C)o2)cc1` was tested, and the IC50 was 9.47 µM. For `CCOC(=O)N1CCN(CC(=O)Nc2ccc([N+](=O)[O-])cc2C(=O)Nc2ccccc2F)CC1`, the IC50 was 29.1 µM (inactive). `Cc1noc(C)c1CSc1nc2[nH]ncc2c(=O)n1-c1ccccc1` was tested, and the IC50 was > 80 µM (inactive). With `O=C(C1CCC1)N1CCN(S(=O)(=O)c2ccc([N+](=O)[O-])cc2)CC1` the IC50 was > 80 µM (inactive). Work on `COC(=O)CSc1nnc(-c2sc3ccccc3c2Cl)o1` yielded an IC50 of 10.3 µM. With `CCN1C(=O)c2cccc3c(S(=O)(=O)N4CCC(C)CC4)ccc1c23` the IC50 was 49.3 µM (inactive). In the case of `COC(=O)c1c(NC(=O)c2cccc([N+](=O)[O-])c2)sc(C(N)=O)c1C`, the IC50 is reported as 45.6 µM (inactive). Compound `CCOc1ccc(-n2c(SCC(=O)Nc3ccc4c(c3)OCCO4)nc3c(c2=O)SCC3)cc1` has an IC50 of 11.7 µM. Compound `CCOc1ccc(-c2cc(CCCC(=O)NCc3ccco3)no2)cc1` has an IC50 of 6.57 µM. `CCN(CC)CCOC(=O)c1ccc(NC(=O)CCCN2C(=O)S/C(=C/c3ccc(OC)cc3)C2=S)cc1` was tested, and the IC50 was 2.11 µM. With `CCC(=O)N1c2ccccc2C(N(C(C)=O)c2ccccc2)CC1C` (centres undefined) the IC50 was 61 µM (inactive). In the case of `CCOc1ccc(-c2noc(CCC(=O)O)n2)cc1`, the IC50 is reported as 4.12 µM. Work on `O=C(O)CCn1c(O)c(C=C2N=c3ccccc3=N2)sc1=S` yielded an IC50 of 17 µM. `O=C1CCCc2c1[nH]c1ccc(CN3CCCCC3)cc21` was tested, and the IC50 was > 80 µM (inactive). `CC1=CC(C)(C)Nc2ccc(OC(=O)c3cccnc3)cc21` showed an IC50 of 14.3 µM. `Cn1nc(-c2ccc(Cl)cc2)c2cc(C(=O)N3CCCC3)sc21` was tested, and the IC50 was > 80 µM (inactive). With `Cc1ccc(C)c(OCc2ccc(C(=O)NN)o2)c1` the IC50 was > 80 µM (inactive). In the case of `COc1ccc(-c2ccoc2)cc1[C@H]1[C@H]2C=CC[C@@H](C)[C@@H]2C(=O)N1Cc1ccccc1`, the IC50 is reported as > 80 µM (inactive). `CCOC(=O)Cc1csc(NC(=S)NC(=O)c2ccc(C)cc2)n1` showed an IC50 of 5.88 µM. With `COc1ccc(Cc2nc(-c3ccc(NC(=O)c4cccnc4)cc3)no2)cc1` the IC50 was > 80 µM (inactive). With `CCCNC(=O)CSCc1nc(-c2ccc(SC)cc2)oc1C` the IC50 was 31.6 µM (inactive). In the case of `Cc1ccc(O)c(NC(=O)COc2cc(C)ccc2C)c1`, the IC50 is reported as > 80 µM (inactive). `CCC(C)(C)c1ccc(OCCCC[n+]2ccccc2)c(C(C)(C)CC)c1` was tested, and the IC50 was 18.2 µM. `Cn1c(=O)cc(OCCCC(=O)NCc2ccccn2)c2ccccc21` was tested, and the IC50 was > 80 µM (inactive). For `CNC(=O)CSc1nc2nn(-c3ccccc3)c(=O)c-2c2n1CCCCC2`, the IC50 was 76.9 µM (inactive). For `C=CCOc1ccc(/C=C2\SC(=S)N(CCC(=O)O)C2=O)cc1`, the IC50 was 0.63 µM. With `O=C(CSCCO)Nc1ccc(C23CC4CC(CC(C4)C2)C3)cc1` the IC50 was > 80 µM (inactive). `CCn1c(CN2CCN(c3ccc(Cl)cc3)CC2)nc2ccccc21` was tested, and the IC50 was > 80 µM (inactive). In the case of `CCC(CC)C(=O)Nc1ccc(Sc2ccc([N+](=O)[O-])cc2)cc1`, the IC50 is reported as 32.2 µM (inactive). `Cc1c(CCC(=O)N2CCC[C@H]2C(=O)O)c(=O)oc2cc3oc4c(c3cc12)CCCC4` was tested, and the IC50 was > 80 µM (inactive). For `Cc1cc(-c2cc(C(=O)NCc3ccccc3)on2)nc(S(C)(=O)=O)n1`, the IC50 was 3.93 µM. For `COc1ccc(-c2nsc(SCC(=O)Nc3cc(C)on3)n2)cc1`, the IC50 was 46.3 µM (inactive). With `Cc1ccc(-c2c[n+]3c(n2-c2ccccc2)SCC3)cc1` the IC50 was > 80 µM (inactive). Work on `Cc1ccc2nc(NC(=O)CSCC(=O)OCC(=O)c3ccc(Br)cc3)sc2c1` yielded an IC50 of 3.6 µM. `Nc1ccc(-c2cc3ccccc3oc2=O)cc1` showed an IC50 of 0.39 µM. With `Cc1ccc(C(=O)OCC(=O)N(CC(C)C)c2c(N)n(Cc3ccccc3)c(=O)[nH]c2=O)o1` the IC50 was 20.6 µM (inactive). `O=C(Nc1nc2c(Br)cc(Br)cc2c(=O)s1)c1ccco1` showed an IC50 of 1.8 µM. For `CCn1c(=O)cc(SCC(=O)N2CCC3(CC2)OCCO3)c2ccccc21`, the IC50 was > 80 µM (inactive). In the case of `COc1ccccc1/C=C1\SC(=S)N(CCC(=O)NC2=NCCS2)C1=O`, the IC50 is reported as > 80 µM (inactive). `O=C(Nc1cccc(Oc2ccc3c(c2)C(=O)NC3=O)c1)c1cccs1` was tested, and the IC50 was > 80 µM (inactive). In the case of `O=C(Nc1nc2nc(-c3ccccc3)cc(-c3ccccc3)n2n1)c1ccco1`, the IC50 is reported as 48.3 µM (inactive). With `CCC(C)N1C(=O)/C(=C/c2c(NCCCOC(C)C)nc3c(C)cccn3c2=O)SC1=S` (centres undefined) the IC50 was > 80 µM (inactive). For `COC(=O)C1=C(c2ccc(-c3ccccc3)c(F)c2)C[C@@H]2CC[C@H]1N2C(=O)N1CCCC1`, the IC50 was 73.9 µM (inactive). For `Cc1cc(OCC(=O)N2CCC(C(N)=O)CC2)c2c3c(c(=O)oc2c1)CCCC3`, the IC50 was > 80 µM (inactive). With `CCOc1ccc(-c2cc(CCCC(=O)NCc3ccc(C)cc3)no2)cc1` the IC50 was > 80 µM (inactive). In the case of `COc1ccc(-c2csc3nc(-c4cccnc4)nc(N4CCC(C(N)=O)CC4)c23)cc1OC`, the IC50 is reported as 44.2 µM (inactive). `O=C(CCCN1C(=O)/C(=C/c2ccccc2Cl)SC1=S)Nc1ccccn1` showed an IC50 of 3.97 µM. `CCc1ccc(/C=C2\SC(=S)N(CCC(=O)Nc3cc(C)on3)C2=O)cc1` was tested, and the IC50 was 19.3 µM. With `N=c1ccn(Cc2c(Cl)cccc2Cl)cc1` the IC50 was > 80 µM (inactive). In the case of `N=c1ccn(Cc2ccccc2Cl)cc1`, the IC50 is reported as > 80 µM (inactive). With `CCc1ccc(/C=C2\SC(=S)N(CCCC(=O)Nc3ccccn3)C2=O)cc1` the IC50 was 0.55 µM. With `COCCCn1c(=O)/c(=C\c2cccc(OC)c2OC)s/c1=C(/C#N)C(=O)Nc1ccc(C(=O)O)cc1` the IC50 was > 80 µM (inactive). In the case of `c1ccc(CCNc2ncnc3ccccc23)cc1`, the IC50 is reported as 60.1 µM (inactive). `CC1=CC(C)(C)Nc2ccc(OC(=O)CN3C(=O)c4ccccc4C3=O)cc21` was tested, and the IC50 was 4.73 µM.
